± gives the expanded uncertainty stated by the source.
Experiments:
[1] = Molar enthalpy of transition or fusion; details: Crystal; DSC
[2] = Crystal; DTA

With `O=P(O)(c1ccccc1)c1ccccc1` [diphenylphosphinic acid] the “Molar enthalpy of transition or fusion” value [1] was 21.9 ± 0.65 kJ/mol and the Normal melting temperature [2] was 192.97 ± 0.5 °C.
